Experimental findings from PubChem BioAssay AID328 (DTP/NCI, 2004) are described below.

Values joined by “and” are separate entries in the source; they are usually repeats but may differ in a detail not shown here. Identical values can stand only once. Inconclusive results and toxic doses are left out.

The subject of the assay is BDF1 mice, P388 leukemia ip, median survival T/C. The assay can be described thus: NCI In Vivo Anticancer Drug Screen. Data for tumor model P388 Leukemia (intraperitoneal) in B6D2F1 (BDF1) mice. As to conditions: endpoint: median survival time, higher = longer survival. In short, it runs like this:
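T/C = treated-group survival ÷ vehicle-control survival; tumour transplanted into mice before dosing.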

[1] abbreviates: dose: 100.0 mg/kg/injection, schedule: Q04DX003 (ip), vehicle: Klucel (hydroxypropylcellulose) (HPC).
Setting [2] is: dose: 200.0 mg/kg/injection, schedule: Q04DX003 (ip), vehicle: Klucel (hydroxypropylcellulose) (HPC).
Where [3] appears, read: dose: 400.0 mg/kg/injection, schedule: Q04DX003 (ip), vehicle: Klucel (hydroxypropylcellulose) (HPC).
Setting [4] is: dose: 25.0 mg/kg/injection, schedule: Q01DX009 (ip), vehicle: saline with Tween-80.
Setting [5] is: dose: 50.0 mg/kg/injection, schedule: Q01DX009 (ip), vehicle: saline with Tween-80.
Where [6] appears, read: dose: 100.0 mg/kg/injection, schedule: Q01DX009 (ip), vehicle: saline with Tween-80.
Where [7] appears, read: dose: 200.0 mg/kg/injection, schedule: Q01DX009 (ip), vehicle: saline with Tween-80.
[8] abbreviates: dose: 100.0 mg/kg/injection, schedule: Q01DX009 (ip), vehicle: Klucel (hydroxypropylcellulose) (HPC).

As for `CN(C)c1ccc(/C=C/c2nc3ccccc3o2)cc1`, the T/C is 90 % of control under setting [1], 90 % of control under setting [2] and 100 % of control under setting [3].
Consider `COc1cccc2c1C(=O)c1c(O)c3c(c(O)c1C2=O)CC(O)(C(C)=O)CC3OC1CC(NC(=O)CNC(=O)CN(C)C)C(O)C(C)O1` (configuration not stated), for which the T/C is, setting by setting: (dose: 1.56 mg/kg/injection, schedule: Q01DX009 (ip), vehicle: water) 101 % of control; (dose: 3.13 mg/kg/injection, schedule: Q01DX009 (ip), vehicle: water) 92 % of control; (dose: 6.25 mg/kg/injection, schedule: Q01DX009 (ip), vehicle: water) 101 % of control; (dose: 12.5 mg/kg/injection, schedule: Q01DX009 (ip), vehicle: water) 91 % of control.
`CCOC(=O)c1cnn2c(SC)ncnc12`: the T/C reads like this: (dose: 12.5 mg/kg/injection, schedule: Q01DX009 (ip), vehicle: saline with Tween-80) 99 % of control; under setting [4], 111 % of control; (dose: 25.0 mg/kg/injection, schedule: Q04DX003 (ip), vehicle: saline with Tween-80) 109 % of control; under setting [5], 101 % of control; (dose: 50.0 mg/kg/injection, schedule: Q04DX003 (ip), vehicle: saline with Tween-80) 100 % of control; under setting [6], 99 % of control. Moreover, the T/C (dose: 100.0 mg/kg/injection, schedule: Q04DX003 (ip), vehicle: saline with Tween-80) was 109 % of control.
For `Cc1ccc(S(=O)C(C)C(Cl)c2ccccc2)cc1` (configuration not stated), the T/C under setting [5] was 98 % of control, the T/C under setting [6] was 106 % of control and the T/C under setting [7] was 100 % of control.
In the case of `CCCNC(=O)OCC#CC#CCOC(=O)NCCC`, the T/C by setting is: under setting [8], 86 % of control; under setting [1], 90 % of control; (dose: 200.0 mg/kg/injection, schedule: Q01DX009 (ip), vehicle: Klucel (hydroxypropylcellulose) (HPC)) 100 % of control; under setting [2], 95 % of control; (dose: 400.0 mg/kg/injection, schedule: Q01DX009 (ip), vehicle: Klucel (hydroxypropylcellulose) (HPC)) 104 % of control; under setting [3], 113 % of control.
Regarding `COC(C/C=C\C=C\CC/C=C/CC(C)/C=C/C(=C\C(=O)O)CC(=O)O)/C(C)=C\C=C(/C)C(=O)O` (configuration not stated), the T/C is, setting by setting: (dose: 1.0 mg/kg/injection, schedule: Q04DX003 (ip), vehicle: saline) 100 % of control; (dose: 2.0 mg/kg/injection, schedule: Q04DX003 (ip), vehicle: saline) 88 % of control; (dose: 4.0 mg/kg/injection, schedule: Q01DX009 (ip), vehicle: saline) 87 % of control; (dose: 4.0 mg/kg/injection, schedule: Q04DX003 (ip), vehicle: saline) 94 % of control; (dose: 6.0 mg/kg/injection, schedule: Q04DX003 (ip), vehicle: saline) 100 % of control; (dose: 8.0 mg/kg/injection, schedule: Q01DX009 (ip), vehicle: saline) 87 % of control. For the same compound, the T/C (dose: 8.0 mg/kg/injection, schedule: Q04DX003 (ip), vehicle: saline) is 108 % of control; the T/C (dose: 16.0 mg/kg/injection, schedule: Q01DX009 (ip), vehicle: saline) was 100 % of control; the T/C (dose: 16.0 mg/kg/injection, schedule: Q04DX003 (ip), vehicle: saline) was 95 % of control.
On to `O=NN(CCCl)C(=O)NC1CCC(NC(=O)N(CCCl)N=O)CC1` (configuration not stated), for which the T/C by setting is: (dose: 11.0 mg/kg/injection, schedule: Q04DX003 (ip), vehicle: saline with Tween-80) 229 % of control; (dose: 13.0 mg/kg/injection, schedule: Q01DX009 (ip), vehicle: saline with Tween-80) 187 % of control; (dose: 20.0 mg/kg/injection, schedule: Q01DX009 (ip), vehicle: saline with Tween-80) 250 % of control and 272 % of control; (dose: 22.0 mg/kg/injection, schedule: Q04DX003 (ip), vehicle: saline with Tween-80) 209 % of control and 220 % of control; (dose: 30.0 mg/kg/injection, schedule: Q01DX009 (ip), vehicle: saline with Tween-80) 272 % of control; (dose: 44.0 mg/kg/injection, schedule: Q01DX009 (ip), vehicle: saline with Tween-80) 272 % of control. The T/C (dose: 44.0 mg/kg/injection, schedule: Q04DX003 (ip), vehicle: saline with Tween-80) was 272 % of control; the T/C (dose: 66.0 mg/kg/injection, schedule: Q01DX009 (ip), vehicle: saline with Tween-80) was 240 % of control and 272 % of control; the T/C (dose: 88.0 mg/kg/injection, schedule: Q04DX003 (ip), vehicle: saline with Tween-80) was 272 % of control and 300 % of control; the T/C under setting [6] was 224 % of control and 192 % of control; the T/C (dose: 133.0 mg/kg/injection, schedule: Q04DX003 (ip), vehicle: saline with Tween-80) was 300 % of control; the T/C (dose: 150.0 mg/kg/injection, schedule: Q01DX009 (ip), vehicle: saline with Tween-80) was 176 % of control. Further, the T/C under setting [7] was 115 % of control; the T/C (dose: 200.0 mg/kg/injection, schedule: Q04DX003 (ip), vehicle: saline with Tween-80) is 300 % of control; the T/C (dose: 300.0 mg/kg/injection, schedule: Q04DX003 (ip), vehicle: saline with Tween-80) is 210 % of control.
`Cc1nc[nH]c1[N+](=O)[O-]`: the T/C is 100 % of control under setting [4] and 86 % of control under setting [6].
For the compound `NNC(=O)c1ccc(Br)cc1`, the T/C was 96 % of control (dose: 50.0 mg/kg/injection, schedule: Q01DX009 (ip), vehicle: Klucel (hydroxypropylcellulose) (HPC)); 92 % of control under setting [8]; 95 % of control under setting [1]; 91 % of control under setting [2].
As for `FC(F)(F)C(Cl)Br` (configuration not stated), the T/C was 90 % of control (dose: 100.0 mg/kg/injection, schedule: Q01DX001 (ip), vehicle: saline); 86 % of control (dose: 150.0 mg/kg/injection, schedule: Q04DX003 (ip), vehicle: saline); 90 % of control (dose: 200.0 mg/kg/injection, schedule: Q01DX001 (ip), vehicle: saline); 100 % of control (dose: 225.0 mg/kg/injection, schedule: Q04DX003 (ip), vehicle: saline); 86 % of control (dose: 335.0 mg/kg/injection, schedule: Q04DX003 (ip), vehicle: saline); 100 % of control (dose: 400.0 mg/kg/injection, schedule: Q01DX001 (ip), vehicle: saline).
Turning to `CCCCc1cc(O)c2c(c1O)C(=O)c1ccccc1C2=O`, the T/C was 104 % of control (dose: 100.0 mg/kg/injection, schedule: Q01DX001 (ip), vehicle: saline with Tween-80); 104 % of control (dose: 200.0 mg/kg/injection, schedule: Q01DX001 (ip), vehicle: saline with Tween-80); 90 % of control (dose: 400.0 mg/kg/injection, schedule: Q01DX001 (ip), vehicle: saline with Tween-80).
